Laboratory results from patent publication US20060252807A1, “Novel ortho-terphenyl inhibitors of p38 kinase and methods of treating inflammatory disorders” (Kalypsys, Inc., priority 2005, published 2006).

Molecular target: T1, active p38 alpha enzyme (Upstate Biotechnology) (Homo sapiens, UniProt Q16539)
T1 construct: purchased Upstate Biotechnology
Assay: p38α biochemical assay (ATP turnover, luminescent detection, Cambrex PKlight)
Details: p38α kinase; Table 1 Biological Activity
In short: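 In this kinase reaction, p38α used MapkapK2 as phosphorylation substrate at low ATP (1.4 uM final) over 2 hours at 30C, and activity was followed as ATP turnover by luminescence.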

T1 sequence (Q16539 whole entry): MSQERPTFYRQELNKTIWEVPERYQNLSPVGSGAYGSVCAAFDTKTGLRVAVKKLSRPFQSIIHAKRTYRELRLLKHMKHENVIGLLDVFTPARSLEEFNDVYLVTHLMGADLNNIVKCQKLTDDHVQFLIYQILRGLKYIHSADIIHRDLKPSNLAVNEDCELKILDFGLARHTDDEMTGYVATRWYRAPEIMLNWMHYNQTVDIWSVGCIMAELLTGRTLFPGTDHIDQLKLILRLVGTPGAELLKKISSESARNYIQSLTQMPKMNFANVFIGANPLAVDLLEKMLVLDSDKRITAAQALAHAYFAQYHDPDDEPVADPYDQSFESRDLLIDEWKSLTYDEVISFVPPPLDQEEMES

SMILES	IC50 [nM]
Cc1nc(-c2ccc(F)cc2)c(-c2nc(C(=O)N(CCO)CCO)cs2)s1 [Example 1855]	> 1000
Cc1nc(-c2ccc(F)cc2)c(-c2nc(C(=O)N3CC(C)CC(C)C3)cs2)s1 (stereo not drawn) [Example 1856]	> 1000
Cc1nc(-c2ccc(F)cc2)c(-c2nc(C(=O)N(C)C3CCCCC3)cs2)s1 [Example 1857]	> 1000
Cc1nc(-c2ccc(F)cc2)c(-c2nc(C(=O)N3C(C)CCCC3C)cs2)s1 (stereo not drawn) [Example 1858]	> 1000
Cc1nc(-c2ccc(F)cc2)c(-c2nc(C(=O)N3CCC(N(C)C)C3)cs2)s1 (stereo not drawn) [Example 1859]	> 1000
Cc1nc(-c2ccc(F)cc2)c(-c2nc(C(=O)N3CC(C)NC(C)C3)cs2)s1 (stereo not drawn) [Example 1860]	> 1000
Cc1nc(-c2ccc(F)cc2)c(-c2nc(C(=O)N3CCCC(CO)C3)cs2)s1 (stereo not drawn) [Example 1861]	> 1000
Cc1nc(-c2ccc(F)cc2)c(-c2nc(C(=O)N3CC(C)OC(C)C3)cs2)s1 (stereo not drawn) [Example 1863]	> 1000
Cc1nc(-c2ccc(F)cc2)c(-c2nc(C(=O)N3CCCCC3CO)cs2)s1 (stereo not drawn) [Example 1864]	> 1000
CCN(CCCCO)C(=O)c1csc(-c2sc(C)nc2-c2ccc(F)cc2)n1 [Example 1865]	> 1000
Cc1nc(-c2ccc(F)cc2)c(-c2nc(C(=O)N3Cc4ccccc4C3)cs2)s1 [Example 1866]	> 1000
Cc1nc(-c2ccc(F)cc2)c(-c2nc(C(=O)N(C)Cc3ccccc3)cs2)s1 [Example 1867]	> 1000
CCN(C(=O)c1csc(-c2sc(C)nc2-c2ccc(F)cc2)n1)C1CCCCC1 [Example 1868]	> 1000
Cc1nc(-c2ccc(F)cc2)c(-c2nc(C(=O)N3CCC(C(N)=O)CC3)cs2)s1 [Example 1869]	> 1000
CC(=O)N[C@H]1CCN(C(=O)c2csc(-c3sc(C)nc3-c3ccc(F)cc3)n2)C1 [Example 1870]	> 1000
Cc1nc(-c2ccc(F)cc2)c(-c2nc(C(=O)N3CCCC(C(N)=O)C3)cs2)s1 (stereo not drawn) [Example 1872]	> 1000
Cc1nc(-c2ccc(F)cc2)c(-c2nc(C(=O)N3CCCCC3CCO)cs2)s1 (stereo not drawn) [Example 1873]	> 1000
Cc1nc(-c2ccc(F)cc2)c(-c2nc(C(=O)N3CCc4ccccc4C3)cs2)s1 [Example 1874]	> 1000
CCN(Cc1ccccc1)C(=O)c1csc(-c2sc(C)nc2-c2ccc(F)cc2)n1 [Example 1875]	> 1000
Cc1nc(-c2ccc(F)cc2)c(-c2nc(C(=O)N(C)CCc3ccccc3)cs2)s1 [Example 1877]	> 1000
Cc1nc(-c2ccc(F)cc2)c(-c2nc(C(=O)N(C)CCc3ccccn3)cs2)s1 [Example 1878]	> 1000
C=CCN(C(=O)c1csc(-c2sc(C)nc2-c2ccc(F)cc2)n1)C1CCCCC1 [Example 1881]	> 1000
COC(=O)C1CCN(C(=O)c2csc(-c3sc(C)nc3-c3ccc(F)cc3)n2)CC1 [Example 1882]	> 1000
Cc1nc(-c2ccc(F)cc2)c(-c2nc(C(=O)N(Cc3ccccc3)C(C)C)cs2)s1 [Example 1883]	> 1000
Cc1nc(-c2ccc(F)cc2)c(-c2nc(C(=O)N(CCO)Cc3ccccc3)cs2)s1 [Example 1884]	> 1000
Cc1nc(-c2ccc(F)cc2)c(-c2nc(C(=O)N(C)CC(O)c3ccccc3)cs2)s1 (stereo not drawn) [Example 1885]	> 1000
Cc1nc(-c2ccc(F)cc2)c(-c2nc(C(=O)N3CCC(O)(O)CC3)cs2)s1 [Example 1886]	> 1000

SMILES	IC50 [nM]
CCOC(=O)C1CCN(C(=O)c2csc(-c3sc(C)nc3-c3ccc(F)cc3)n2)CC1 [Example 1887]	> 1000
CCOC(=O)C1CCCN(C(=O)c2csc(-c3sc(C)nc3-c3ccc(F)cc3)n2)C1 (stereo not drawn) [Example 1888]	> 1000
CCOC(=O)N1CCN(C(=O)c2csc(-c3sc(C)nc3-c3ccc(F)cc3)n2)CC1 [Example 1889]	> 1000
Cc1nc(-c2ccc(F)cc2)c(-c2nc(C(=O)N(CCC#N)Cc3cccnc3)cs2)s1 [Example 1891]	> 1000
Cc1nc(-c2ccc(F)cc2)c(-c2nc(C(=O)N3CCN(c4ccccc4)CC3)cs2)s1 [Example 1892]	> 1000
Cc1nc(-c2ccc(F)cc2)c(-c2nc(C(=O)N3CCN(c4ccccn4)CC3)cs2)s1 [Example 1893]	> 1000
CCCCN(Cc1ccccc1)C(=O)c1csc(-c2sc(C)nc2-c2ccc(F)cc2)n1 [Example 1894]	> 1000
Cc1nc(-c2ccc(F)cc2)c(-c2nc(C(=O)N(CCO)[C@H](C)c3ccccc3)cs2)s1 [Example 1895]	> 1000
Cc1nc(-c2ccc(F)cc2)c(-c2nc(C(=O)N(CCCO)Cc3ccccn3)cs2)s1 [Example 1896]	> 1000
Cc1nc(-c2ccc(F)cc2)c(-c2nc(C(=O)N(C)CC(O)c3ccc(O)cc3)cs2)s1 (stereo not drawn) [Example 1897]	> 1000
Cc1nc(-c2ccc(F)cc2)c(-c2nc(C(=O)N3CCN(C4CCCCC4)CC3)cs2)s1 [Example 1898]	> 1000
Cc1nc(-c2ccc(F)cc2)c(-c2nc(C(=O)N3CCC(Cc4ccccc4)CC3)cs2)s1 [Example 1899]	> 1000
Cc1nc(-c2ccc(F)cc2)c(-c2nc(C(=O)N3CCN(Cc4ccccc4)CC3)cs2)s1 [Example 1900]	> 1000
Cc1nc(-c2ccc(F)cc2)c(-c2nc(C(=O)N3CCCN(Cc4ccccc4)CC3)cs2)s1 [Example 1901]	> 1000
Cc1nc(-c2ccc(F)cc2)c(-c2nc(C(=O)N3CCN(c4ccc(O)cc4)CC3)cs2)s1 [Example 1902]	> 1000
Cc1nc(-c2ccc(F)cc2)c(-c2nc(C(=O)N(CCN(C)C)Cc3ccccc3)cs2)s1 [Example 1903]	> 1000
Cc1nc(-c2ccc(F)cc2)c(-c2nc(C(=O)N3CCN(c4ccccc4F)CC3)cs2)s1 [Example 1904]	> 1000
Cc1nc(-c2ccc(F)cc2)c(-c2nc(C(=O)N3CCN(c4ccc(F)cc4)CC3)cs2)s1 [Example 1905]	> 1000
Cc1nc(-c2ccc(F)cc2)c(-c2nc(C(=O)N3CCN(CC4CCCCC4)CC3)cs2)s1 [Example 1906]	> 1000
Cc1nc(-c2ccc(F)cc2)c(-c2nc(C(=O)N(C)C[C@H](O)c3ccc(O)c(O)c3)cs2)s1 [Example 1907]	> 1000
Cc1nc(-c2ccc(F)cc2)c(-c2nc(C(=O)N3CCN(C(=O)OC(C)(C)C)CC3)cs2)s1 [Example 1909]	> 1000
Cc1nc(-c2ccc(F)cc2)c(-c2nc(C(=O)N3CCC(NC(=O)OC(C)(C)C)C3)cs2)s1 (stereo not drawn) [Example 1910]	> 1000
Cc1nc(-c2ccc(F)cc2)c(-c2nc(C(=O)N3CCN(c4ccc(C#N)cn4)CC3)cs2)s1 [Example 1912]	> 1000
Cc1nc(-c2ccc(F)cc2)c(-c2nc(C(=O)N3CCN(c4cccc(C)c4C)CC3)cs2)s1 [Example 1913]	> 1000
Cc1nc(-c2ccc(F)cc2)c(-c2nc(C(=O)N3CCN(CCc4ccccc4)CC3)cs2)s1 [Example 1916]	> 1000
Cc1nc(-c2ccc(F)cc2)c(-c2nc(C(=O)N3CCN(c4ccc(C)c(C)c4)CC3)cs2)s1 [Example 1917]	> 1000
Cc1ccc(N2CCN(C(=O)c3csc(-c4sc(C)nc4-c4ccc(F)cc4)n3)CC2)c(C)c1 [Example 1918]	> 1000

Second part, the compound after the results:

IC50 [nM]	SMILES
> 1000	C#CCN(C)C(=O)c1csc(-c2sc(C)nc2-c2ccc(F)cc2)n1 [Example 1836]
> 1000	CCN(CC)C(=O)c1csc(-c2sc(C)nc2-c2ccc(F)cc2)n1 [Example 1837]
> 1000	CCCN(C)C(=O)c1csc(-c2sc(C)nc2-c2ccc(F)cc2)n1 [Example 1838]
> 1000	Cc1nc(-c2ccc(F)cc2)c(-c2nc(C(=O)N(C)CCO)cs2)s1 [Example 1839]
> 1000	Cc1nc(-c2ccc(F)cc2)c(-c2nc(C(=O)N(C)CCC#N)cs2)s1 [Example 1840]
> 1000	Cc1nc(-c2ccc(F)cc2)c(-c2nc(C(=O)N3CCOCC3)cs2)s1 [Example 1841]
> 1000	Cc1nc(-c2ccc(F)cc2)c(-c2nc(C(=O)N(C)CC(C)C)cs2)s1 [Example 1842]
> 1000	CCN(C(=O)c1csc(-c2sc(C)nc2-c2ccc(F)cc2)n1)C(C)C [Example 1843]
> 1000	CCCCN(C)C(=O)c1csc(-c2sc(C)nc2-c2ccc(F)cc2)n1 [Example 1844]
> 1000	CCN(CCO)C(=O)c1csc(-c2sc(C)nc2-c2ccc(F)cc2)n1 [Example 1845]
> 1000	Cc1nc(-c2ccc(F)cc2)c(-c2nc(C(=O)N3CCSC3)cs2)s1 [Example 1846]
> 1000	Cc1nc(-c2ccc(F)cc2)c(-c2nc(C(=O)N3CCCCC3C)cs2)s1 (stereo not drawn) [Example 1847]
> 1000	Cc1nc(-c2ccc(F)cc2)c(-c2nc(C(=O)N3CCC(C)CC3)cs2)s1 [Example 1848]
> 1000	Cc1nc(-c2ccc(F)cc2)c(-c2nc(C(=O)N3CCN(C)CC3)cs2)s1 [Example 1849]
≤ 1000	Cc1nc(-c2ccc(F)cc2)c(-c2nc(C(=O)N3CCCC3CO)cs2)s1 (stereo not drawn) [Example 1850]
> 1000	Cc1nc(-c2ccc(F)cc2)c(-c2nc(C(=O)N3CCC[C@@H]3CO)cs2)s1 [Example 1851]
> 1000	CCCCN(CC)C(=O)c1csc(-c2sc(C)nc2-c2ccc(F)cc2)n1 [Example 1852]
> 1000	CCCN(CCC)C(=O)c1csc(-c2sc(C)nc2-c2ccc(F)cc2)n1 [Example 1853]
> 1000	Cc1nc(-c2ccc(F)cc2)c(-c2nc(C(=O)N3CCSCC3)cs2)s1 [Example 1854]
≤ 1000	COC[C@@H]1CCCN1C(=O)c1csc(-c2sc(C)nc2-c2ccc(F)cc2)n1 [Example 1862]
≤ 1000	Cc1nc(-c2ccc(F)cc2)c(-c2nc(C(=O)N3CCCC4CCCCC43)cs2)s1 (stereo not drawn) [Example 1880]
≤ 1000	CCOC(=O)CC1C(=O)NCCN1C(=O)c1csc(-c2sc(C)nc2-c2ccc(F)cc2)n1 (stereo not drawn) [Example 1908]
≤ 1000	Cc1nc(-c2ccc(F)cc2)c(-c2nc(C(=O)N3CCN(c4ccccc4C#N)CC3)cs2)s1 [Example 1911]
≤ 1000	Cc1cccc(N2CCN(C(=O)c3csc(-c4sc(C)nc4-c4ccc(F)cc4)n3)CC2C)c1 (stereo not drawn) [Example 1915]
